The values below are quoted from earlier work in the CATMoS acute toxicity set (Mansouri et al. 2021).

For orientation: LD50 means the dose at which mortality reaches 50%.

“And” between values parts separate entries of the source, which are not always exact repeats. Equal values may be shown once.

This data set in a line: rat acute oral toxicity. Conditions: in vivo.
Take `CC(=O)N1N=C(c2ccc(N)cc2)c2cc3c(cc2CC1C)OCO3` (configuration not stated): the LD50 is 200 mg/kg.
As for `CCN(CC)NNCCCO`, the LD50 is 3730 mg/kg.
On to `CCCCC1OC(=O)c2ccccc21` (configuration not stated), for which the LD50 is 2450 mg/kg.
For `CCCCCCCCOC(CBr)c1ccc(C(C)(C)C)cc1` (configuration not stated), the LD50 was 250 mg/kg.
With `Cc1ccn(C(=O)NCCCCCCNC(=O)n2ccc(C)n2)n1`, the LD50 was 4850 mg/kg.
As for `CCOC(=O)CCCCCCCCC(C)c1ccc(I)cc1` (configuration not stated), the LD50 was 2100 mg/kg.
Turning to `CCCCC1C(=O)NC(=O)N(C2CCCCC2)C1=O` (configuration not stated), the LD50 was 1120 mg/kg.
Take `NNC(=O)CSc1cc(Oc2ccccc2)ncn1`: the LD50 was 220 mg/kg.
As to `N=C(N)NCCCCCCCCNCCCCCCCCNC(=N)N`, the median lethal dose (LD50) was 300 mg/kg.
For the compound `Oc1ccc2ccccc2c1`, the LD50 was 1960 mg/kg and 2120 mg/kg.
For the compound `CNC(=O)Oc1cccc2c1OC(C)(C)C2=O`, the 50% lethal dose (LD50) was 295 mg/kg.
As to `CN1CCN(CCCN2c3ccccc3Sc3ccc(Cl)cc32)CC1`, the LD50 was 1800 mg/kg.
Regarding `ClC1=C(Cl)C2(Cl)C3C4C=CC(O4)C3C1(Cl)C2(Cl)Cl` (configuration not stated), the LD50 is 68 mg/kg.
With `Nc1cc(Cl)ccc1O`, the LD50 is 690 mg/kg.
`CC(=O)c1ccccn1`: the LD50 is 2280 mg/kg.
In the case of `O=C(O)c1cc(Oc2ccc(C(F)(F)F)cc2Cl)ccc1[N+](=O)[O-]`, the LD50 is 1370 mg/kg.
For `O=P1(NCCCl)OCCCN1CCCl` (configuration not stated), the LD50 is 143 mg/kg.
`CCC1(CC)C(=O)C=CNC1=O`: the LD50 was 780 mg/kg.
In the case of `Nc1ccc([N+](=O)[O-])cc1[N+](=O)[O-]`, the LD50 was 285 mg/kg.
With `O=C=Nc1ccc([N+](=O)[O-])cc1`, the LD50 is 1600 mg/kg.
Take `CCN(CC)CCOc1ccc2c(c1)C(=O)c1cc(OCCN(CC)CC)ccc1-2`: the LD50 was 852 mg/kg.
Take `O=CNC(N1CCOCC1)C(Cl)(Cl)Cl` (configuration not stated): the LD50 is 990 mg/kg.
Consider `COP(=S)(OC)SCSc1ccc(Cl)cc1`, for which the LD50 is 48 mg/kg.
`O=C(O)Cc1cc(I)c(Oc2cc(I)c(O)c(I)c2)c(I)c1`: the LD50 was 0.825 mg/kg.
`NS(=O)(=O)c1cc(-c2nnn[nH]2)c(NCc2cccs2)cc1Cl`: the LD50 is 2540 mg/kg.
Take `Nc1cc(-c2cccs2)no1`: the LD50 was 1850 mg/kg.
Consider `Cc1ccc2c(c1)CC(=O)c1cc(C(C)C(=O)O)ccc1O2` (configuration not stated), for which the LD50 is 147 mg/kg.
For `CNC(C)CC1CCCC1` (configuration not stated), the LD50 is 169 mg/kg.
Turning to `O=C(O)CCCCCC(=O)O`, the LD50 is 7000 mg/kg.
In the case of `O=C(O)c1ccccc1Nc1cc(Cl)ccc1C(=O)O`, the median lethal dose (LD50) was 1150 mg/kg.
Turning to `C=C(C)C(=O)OCC(=O)OCC`, the LD50 is 7880 mg/kg.
As for `CN1CCN=C(c2ccccc2)c2cc(Cl)ccc21`, the LD50 is 900 mg/kg.
For the compound `O=C(COc1ccc(Cc2ccc(Cl)cc2)cc1)OCc1cccnc1`, the LD50 was 2700 mg/kg.
For the compound `C[N+](C)(C)CCO`, the LD50 was 6640 mg/kg.
As to `CCC#N`, the 50% lethal dose (LD50) was 39 mg/kg.
Turning to `COc1ccc2cc([C@H](C)C(=O)OCCN3CCN(Cc4ccc(N)cc4)CC3)ccc2c1`, the LD50 is 1600 mg/kg.
Take `COCCOC(=O)c1ccccc1C(=O)OCCOC`: the LD50 is 4400 mg/kg.
With `Cc1cc(C2CCCCC2)n(O)c(=O)c1`, the LD50 was 2350 mg/kg.
As to `OCCOCCOCCOCCOc1ccccc1`, the median lethal dose (LD50) is 1260 mg/kg.
On to `BrCc1cccc(Oc2ccccc2)c1`, for which the LD50 was 2330 mg/kg.
With `CCCCCCC(=O)OCCN1CCN(CCCN2c3ccccc3Sc3ccc(C(F)(F)F)cc32)CC1`, the LD50 was 230 mg/kg.
Consider `CC1(c2ccccc2)OC(C(=O)O)=CC1=O` (configuration not stated), for which the LD50 is 3000 mg/kg.
Consider `COc1cccc([C@]2(O)CCCC[C@H]2CN(C)C)c1` (single isomer, unassigned), for which the LD50 is 228 mg/kg.
As for `CCN(CCCOS(C)(=O)=O)CCCOS(C)(=O)=O`, the LD50 was 375 mg/kg.
`CCCCC/C(=C/c1ccccc1)CO`: the LD50 was 4000 mg/kg.
As for `CCOC(=O)C(N)Cc1ccc(O)cc1` (configuration not stated), the LD50 is 13800 mg/kg.
With `CNC(=S)NNc1cc(C(F)(F)F)cc(C(F)(F)F)c1`, the LD50 is 414 mg/kg.
`S=c1[nH]nc(NCNc2n[nH]c(=S)s2)s1`: the LD50 is 4640 mg/kg.
Consider `CCCCOCCOCCSC#N`, for which the LD50 is 90 mg/kg.
As for `CCOP(=O)(OCC)SCn1nc(C)oc1=O`, the LD50 is 1 mg/kg.
Turning to `CCCCCCCC(=O)OCC`, the 50% lethal dose (LD50) is 26000 mg/kg.
`O=C1c2ccccc2C(=O)c2c(Nc3ccc(Oc4ccc(S(=O)(=O)O)cc4)cc3)ccc(Nc3ccc(Oc4ccc(S(=O)(=O)O)cc4)cc3)c21`: the 50% lethal dose (LD50) is 8550 mg/kg.
Turning to `CC(Cc1ccccc1)NCC1COc2ccccc2C1=O` (configuration not stated), the LD50 was 500 mg/kg.
Take `O=S(=O)(c1ccc(NC([C@H](O)[C@@H](O)[C@H](O)[C@H](O)CO)S(=O)(=O)O)cc1)c1ccc(NC([C@H](O)[C@@H](O)[C@H](O)[C@H](O)CO)S(=O)(=O)O)cc1` (some centres not stated): the LD50 is 3000 mg/kg.
`CCc1ccc(CCO)nc1`: the LD50 was 4290 mg/kg.
In the case of `COC(=O)c1ccccc1N=NN(C)C`, the LD50 was 13 mg/kg.
As to `OC(c1ccccc1)(c1ccccc1)C1CCNCC1`, the LD50 was 984 mg/kg.
On to `CCNC(C)CN1CCc2c(c(=O)oc3ccccc23)C1` (configuration not stated), for which the LD50 was 300 mg/kg.
On to `CN1CC(O)N(c2nnc(C(C)(C)C)s2)C1=O` (configuration not stated), for which the LD50 is 1540 mg/kg.
For the compound `CC(C)(C)N`, the median lethal dose (LD50) was 96 mg/kg.
As for `CN(C)C(=O)NC1CCCCCCC1`, the LD50 is 1500 mg/kg.
Take `Cn1c(=O)c2c(ncn2CCNCc2cccnc2)n(C)c1=O`: the LD50 is 3700 mg/kg.
As for `CSCCC(O)C#N` (configuration not stated), the 50% lethal dose (LD50) was 48 mg/kg.
As for `CCc1cc(S(=O)(=O)O)c2cc(C(C)C)cccc1-2`, the LD50 is 1100 mg/kg.
Consider `CCCCCCCCCCCCCCCN`, for which the LD50 is 660 mg/kg.
Take `CCCCOC(=O)C1CCC(C(=O)OCCCC)C1` (configuration not stated): the LD50 was 6500 mg/kg.
With `NC(=O)CCN1CCN(C2Cc3cc(Cl)ccc3Sc3cc(F)ccc32)CC1` (configuration not stated), the LD50 is 472 mg/kg and 490 mg/kg.
For `CC(=O)CCCO`, the LD50 is 6400 mg/kg.
Take `O=c1[nH]ncc2ccccc12`: the LD50 is 370 mg/kg.
As for `COCCCO`, the LD50 was 5710 mg/kg.
On to `CCCNC(=O)OCC(O)C1COc2ccccc2O1` (configuration not stated), for which the LD50 was 1500 mg/kg.
As to `CCC(=O)C(CC(C)N(C)C)(c1ccccc1)c1ccccc1` (configuration not stated), the median lethal dose (LD50) is 86 mg/kg.
With `NC(Cl)(Cl)c1nc(Cl)c(Cl)c(Cl)c1Cl`, the LD50 was 1500 mg/kg.
Turning to `CCC1OCC(=NOC(=O)NC)S1` (configuration not stated), the LD50 is 60 mg/kg.
For the compound `C#CCOP(=O)(OCC(C)C)c1ccccc1` (configuration not stated), the LD50 was 600 mg/kg.
`CCOP(=O)(OCC)SCn1nc(Cl)c(C)cc1=O`: the LD50 is 27 mg/kg.
`Nc1ncnc2c1ncn2[C@]1(CO)O[C@H](CO)[C@@H](O)[C@H]1O`: the LD50 was 10000 mg/kg.
Regarding `CCCCCCOCC(O)COc1ccccc1C(=O)O` (configuration not stated), the LD50 is 2150 mg/kg.
Take `Cc1cc(O)ccc1S(C)=O` (configuration not stated): the LD50 is 3500 mg/kg.
As for `Nc1c([N+](=O)[O-])cc(Cl)cc1[N+](=O)[O-]`, the LD50 was 400 mg/kg.
Take `C=CCON/C(CCC)=C1\C(=O)CC(C)(C)C(C(=O)OC)C1=O` (configuration not stated): the LD50 was 2260 mg/kg.
For the compound `CCOC(=O)CC(=O)CCl`, the LD50 was 200 mg/kg.
For the compound `CC(C)(C)NC[C@H](O)COc1cccc2c1CCCC2=O`, the LD50 was 700 mg/kg.
On to `CCCc1ccc(O)cc1`, for which the LD50 is 500 mg/kg.
As for `CNCC(O)c1cccc(NS(C)(=O)=O)c1` (configuration not stated), the LD50 was 13 mg/kg.
With `CCOc1cc(C(C)(C)C)ccc1C1COC(c2c(F)cccc2F)=N1` (configuration not stated), the LD50 is 4270 mg/kg.
As for `Cc1ccccc1OCC(O)CN1CC=CCC1` (configuration not stated), the LD50 is 340 mg/kg.
